Converted amounts (≈) assume the structure as drawn. Read-outs that look alike come from different tables or passages of the source.
How the values were obtained:
Assay in all cases: Serum MIC, broth micro-dilution
Format in all cases: cell-based
[1] = tested on: Pseudomonas aeruginosa PA01; conditions: Pseudomonas aeruginosa, read-out: P. aeruginosa 01 Serum MIC
Procedure: (§1) In vitro antimicrobial activity of each compound was determined by measuring minimal inhibitor concentrations (MICs) using the broth micro-dilution technique as approved by the Clinical and Laboratory Standards Institute (CLSI) (Methods for Dilution Antimicrobial Susceptibility Tests for Bacteria that Grow Aerobically; Approved Standard—Eighth Edition. CLSI document M07-A8. Wayne, Pa.: Clinical and Laboratory Standards; 2009). Antibacterial activity was measure against Escherichia coli strain ATCC 25922 (E. coli), Klebsiella pneumoniae ATCC 700603 (K. pneumoniae), Acinetobacter baumannii ATCC 17978 (A. baumannii), and Pseudomonas aeruginosa PA01 (P. aeruginosa), each of which is representative of a clinically relevant Gram-negative species. Cells were inoculated onto plates of Mueller Hinton Agar and grown at 37° C. for 16-18 hours. Inocula suspensions were prepared by scraping cells into 1 mL of testing media (Mueller Hinton II cation adjusted Broth) and diluting to a final OD 600 nm of 0.01.
(§2) Test compounds were prepared in DMSO at a concentration of […]. The compounds were tested under several different dilution formats. In protocol 1, the compound stocks were diluted into testing media at a concentration of 64 μg/ml and serial 2-fold dilutions were made in the same media, in 96-well U bottom microtiter dishes, for a total of 10 compound concentrations. In protocol 2, the compound stocks were diluted into testing media at a concentration of 4 μg/mL and serial 2-fold dilutions were made in the same media, in 96-well U bottom microtiter dishes, for a total of 10 compound concentrations. In protocol 3, compound stocks were diluted into testing media at a concentration of 0.5 μg/mL, with serial 2-fold dilutions conducted as described above. In protocol 4, compound stocks were diluted into testing media at a concentration of 0.13 μg/mL, with serial 2-fold dilutions conducted as described above. Inocula suspensions were added to the 2-fold serial dilutions of test compounds to a final density of OD 600 nm of 0.0005 and incubated at 35° C. for 22 hours. […] To assess antimicrobial activity in the presence of plasma proteins, MICs were also determined in growth media supplemented with 50% serum. Bacterial inocula and test compound dilution plates were prepared using the same protocol as described above for the standard MICs assay, with the exception that a mixture of 50% v/v Mueller Hinton II cation adjusted Broth and 50% v/v mouse sterile filtered serum (Equitech-Bio) was used in place of 100% Mueller Hinton II cation adjusted Broth. The results are listed in Table 3 (MIC, IC50 values micromolar).

[2] = tested on: Acinetobacter baumannii ATCC 17978; conditions: Acinetobacter baumannii
Procedure: as §1, §2

[3] = tested on: Escherichia coli strain ATCC 25922; conditions: Escherichia coli, read-out: E. coli 25922 Serum MIC
Procedure: as §1, §2

[4] = tested on: Klebsiella pneumoniae ATCC 700603; conditions: Klebsiella pneumoniae
Procedure: as §1, §2

[5] = PA01, 50% v/v mouse serum in Mueller Hinton II cation adjusted Broth, 35° C., 22 hours, Table 4
[6] = ATCC17978, 50% v/v mouse serum in Mueller Hinton II cation adjusted Broth, 35° C., 22 hours, Table 4, read-out: A. baumanii 17978 Serum MIC
[7] = ATCC17978, 50% v/v mouse serum in Mueller Hinton II cation adjusted Broth, 35° C., 22 hours, Table 5, read-out: Acinetobacter baumanii 17978 Serum MIC
[8] = ATCC25922, 50% v/v mouse serum in Mueller Hinton II cation adjusted Broth, 35° C., 22 hours, Table 4
[9] = ATCC700603, 50% v/v mouse serum in Mueller Hinton II cation adjusted Broth, 35° C., 22 hours, Table 4, read-out: K pneumoniae 700603 Serum MIC
[10] = PA01, 50% v/v mouse serum, compounds of Table 1, Table 7
[11] = ATCC17978, 50% v/v mouse serum, compounds of Table 1, Table 7, read-out: A. baumanii 17978 Serum MIC
[12] = ATCC25922, 50% v/v mouse serum, compounds of Table 1, Table 7
[13] = ATCC700603, 50% v/v mouse serum, compounds of Table 1, Table 7, read-out: K. pneumoniae 700603 Serum MIC

Compound | MIC [1, 5] [µM] | MIC [2, 6] [µM] | MIC [2, 7] [µM] | MIC [3, 8] [µM] | MIC [4, 9] [µM] | MIC [1, 10] [µM] | MIC [2, 11] [µM] | MIC [3, 12] [µM] | MIC [4, 13] [µM] | also measured
CCC(C)(C)c1ccc(-c2nc(C)c(C(=O)N[C@@H](CNS(N)(=O)=O)C(=O)N(C)[C@@H]3C(=O)N[C@@H](C)C(=O)N[C@H](C(=O)O)Cc4ccc(OC[C@H](O)CN)c(c4)-c4cc3cc(OC[C@H](O)CN)c4O)c(N)n2)c(F)c1 [Example 33, (8S,11S,14S)-14-[[(2S)-2-[[4-amino-2-[4-(1,1-dimethyl-propyl)-2-fluoro-phenyl]-6-methyl-pyrimidine-5-carbonyl]amino]-3-(sulfamoylamino)-propanoyl]-methyl-amino]-3,17-bis[(2R)-3-amino-2-hydroxy-propoxy]-18-hydroxy-11-methyl-10,13-dioxo-9,12-diazatricyclo-[13.3.1.12,6]icosa-1(18),2(20),3,5,15(19), 16-hexaene-8-carboxylic acid] | 8 (≈ 8.32 µg/mL) | 48 (≈ 49.9 µg/mL) | 48 (≈ 49.9 µg/mL) | 1 (≈ 1.04 µg/mL) | 1 (≈ 1.04 µg/mL) |  |  |  |  | 
Cc1nc(-c2ccc(CC3CC3)cc2)nc(N)c1C(=O)N[C@@H](CNS(N)(=O)=O)C(=O)N(C)[C@@H]1C(=O)N[C@@H](C)C(=O)N[C@H](C(=O)O)Cc2ccc(OC[C@H](O)CN)c(c2)-c2cc1cc(OC[C@H](O)CN)c2O [Example 34, (8S,11S,14S)-14-[[(2S)-2-[[4-amino-2-[4-(cyclopropyl-methyl)phenyl]-6-methyl-pyrimidine-5-carbonyl]amino]-3-(sulfamoylamino)-propanoyl]-methyl-amino]-3,17-bis[(2R)-3-amino-2-hydroxy-propoxy]-18-hydroxy-11-methyl-10,13-dioxo-9,12-diazatricyclo-[13.3.1.12,6]icosa-1(18),2(20),3,5,15(19), 16-hexaene-8-carboxylic acid] | 12 (≈ 12.1 µg/mL) | 16 (≈ 16.1 µg/mL) | 16 (≈ 16.1 µg/mL) | 0.5 (≈ 0.503 µg/mL) | 0.75 (≈ 0.755 µg/mL) |  |  |  |  | 
Cc1nc(-c2ccc(C(C)(C)C)cc2)nc(C)c1C(=O)N[C@@H](CCN)C(=O)N(C)[C@@H]1C(=O)N[C@@H](C)C(=O)N[C@H](C(=O)O)Cc2ccc(OCCN)c(c2)-c2cc1cc1[nH]c(=O)oc21 (racemic) [Example 649] |  |  |  |  |  | 64 (≈ 55.3 µg/mL) | 64 (≈ 55.3 µg/mL) | 1 (≈ 0.864 µg/mL) | 2 (≈ 1.73 µg/mL) | 
Cc1nc(-c2ccc(OCCC(C)(C)C)nc2)nc(N)c1C(=O)N[C@@H](CNS(N)(=O)=O)C(=O)N(C)[C@@H]1C(=O)N[C@@H](C)C(=O)N[C@H](C(=O)O)Cc2ccc(OC[C@H](O)CN)c(c2)-c2cc1cc(OC[C@H](O)CN)c2O [Example 54, (8S,11S,14S)-14-[[(2S)-2-[[4-amino-2-[6-(3,3-dimethyl-butoxy)-3-pyridyl]-6-methyl-pyrimidine-5-carbonyl]amino]-3-(sulfamoylamino)-propanoyl]-methyl-amino]-3,17-bis[(2R)-3-amino-2-hydroxy-propoxy]-18-hydroxy-11-methyl-10,13-dioxo-9,12-diazatri-cyclo[13.3.1.12,6]icosa-1(18),2(20),3,5,15(19), 16-hexaene-8-carboxylic acid] | 4 (≈ 4.21 µg/mL) | 8 (≈ 8.43 µg/mL) | 8 (≈ 8.43 µg/mL) | 0.38 (≈ 0.4 µg/mL) | 0.5 (≈ 0.527 µg/mL) |  |  |  |  | 
Cc1nc(-c2ccc(C3(C)CC3)cc2)nc(N)c1C(=O)N[C@@H](CNS(N)(=O)=O)C(=O)N(C)[C@@H]1C(=O)N[C@@H](C)C(=O)N[C@H](C(=O)O)Cc2ccc(OC[C@H](O)CN)c(c2)-c2cc1cc(OC[C@H](O)CN)c2O [Example 6, (8S,11S,14S)-18-hydroxy-11-methyl-14-[methyl-[(2S)-2-[[4-amino-6-methyl-2-[4-(1-methylcyclo-propyl)phenyl]-pyrimidine-5-carbonyl]amino]-3-(sulfamoylamino)-propanoyl]amino]-10,13-dioxo-3,17-bis[(2R)-3-amino-2-hydroxy-propoxy]-9,12-diazatricyclo-[13.3.1.12,6]icosa-1(18),2(20),3,5,15(19), 16-hexaene-8-carboxylic acid] | 16 (≈ 16.1 µg/mL) | 16 (≈ 16.1 µg/mL) | 16 (≈ 16.1 µg/mL) | 0.75 (≈ 0.755 µg/mL) | 0.75 (≈ 0.755 µg/mL) |  |  |  |  | 
C[C@@H]1NC(=O)[C@@H](N(C)C(=O)[C@H](CNS(N)(=O)=O)NC(=O)c2cnn(-c3ccc(C(C)(C)C)cc3)c(=O)c2)c2cc(OC[C@H](O)CN)c(O)c(c2)-c2cc(ccc2OC[C@H](O)CN)C[C@@H](C(=O)O)NC1=O [Example 1, (8S,11S,14S)-18-hydroxy-11-methyl-14-[methyl-[(2S)-2-[[1-(4-tert-butylphenyl)-6-oxo-pyridazine-4-carbonyl]amino]-3-(sulfamoylamino)-propanoyl]amino]-10,13-dioxo-3,17-bis[(2R)-3-amino-2-hydroxy-propoxy]-9,12-diazatricyclo-[13.3.1.12,6]icosa-1(18),2(20),3,5,15(19), 16-hexaene-8-carboxylic acid] |  |  |  |  |  |  |  |  |  | MIC ([1]; PA01, 22 h): 16 µM (≈ 15.9 µg/mL); MIC ([2]; ATCC17978, 22 h, read-out: A. baumanii 17978 Serum MIC): 24 µM (≈ 23.9 µg/mL); MIC ([2]; ATCC17978, 22 h, read-out: Acinetobacter baumanii 17978 Serum MIC): 24 µM (≈ 23.9 µg/mL); MIC ([3]; ATCC25922, 22 h): 3 µM (≈ 2.99 µg/mL); MIC ([4]; ATCC700603, 22 h, read-out: K pneumoniae 700603 Serum MIC): 1.5 µM (≈ 1.49 µg/mL)

Continued, in another order:

MIC [1, 5] [µM] | MIC [2, 6] [µM] | MIC [2, 7] [µM] | MIC [3, 8] [µM] | MIC [4, 9] [µM] | MIC [1, 10] [µM] | MIC [2, 11] [µM] | MIC [3, 12] [µM] | MIC [4, 13] [µM] | Compound | also measured
3 (≈ 3.07 µg/mL) | 6 (≈ 6.13 µg/mL) | 6 (≈ 6.13 µg/mL) | 0.25 (≈ 0.256 µg/mL) | 0.5 (≈ 0.511 µg/mL) |  |  |  |  | CNc1nc(-c2ccc(C(C)(C)C)cc2)nc(C)c1C(=O)N[C@@H](CNS(N)(=O)=O)C(=O)N(C)[C@@H]1C(=O)N[C@@H](C)C(=O)N[C@H](C(=O)O)Cc2ccc(OC[C@H](O)CN)c(c2)-c2cc1cc(OC[C@H](O)CN)c2O [Example 56, (8S,11S,14S)-3,17-bis[(2R)-3-amino-2-hydroxy-propoxy]-14-[[(2S)-2-[[2-(4-tert-butylphenyl)-4-methyl-6-(methyl-amino)pyrimidine-5-carbonyl]amino]-3-(sulfamoylamino)-propanoyl]-methyl-amino]-18-hydroxy-11-methyl-10,13-dioxo-9,12-diazatri-cyclo[13.3.1.12,6]icosa-1(18),2(20),3,5,15(19), 16-hexaene-8-carboxylic acid] | 
 |  |  |  |  | 4 (≈ 3.68 µg/mL) | 5 (≈ 4.6 µg/mL) | 0.063 (≈ 0.058 µg/mL) | 0.063 (≈ 0.058 µg/mL) | Cc1nc(-c2ccc(C(C)(C)C)cc2)nc(C)c1C(=O)N[C@@H](CCN)C(=O)N(C)[C@@H]1C(=O)N[C@@H](C)C(=O)N[C@H](C(=O)NCC#N)Cc2ccc(O)c(c2)-c2cc1cc(OCCN)c2OCCN [Example 633] | 
 |  |  |  |  | 64 (≈ 57.3 µg/mL) | 64 (≈ 57.3 µg/mL) | 0.75 (≈ 0.672 µg/mL) | 1 (≈ 0.896 µg/mL) | CCCCCOc1ccc(-c2nc(C)c(C(=O)N[C@@H](CCN)C(=O)N(C)[C@@H]3C(=O)N[C@@H](C)C(=O)N[C@H](C(=O)O)Cc4ccc(OCCN)c(c4)-c4cc3ccc4OCCN)c(C)n2)cc1 (racemic) [Example 638] | 
 |  |  |  |  | 64 (≈ 56.2 µg/mL) | 64 (≈ 56.2 µg/mL) | 0.5 (≈ 0.439 µg/mL) | 1 (≈ 0.878 µg/mL) | Cc1nc(-c2ccc3c(c2)CCC3(C)C)nc(C)c1C(=O)N[C@@H](CCN)C(=O)N(C)[C@@H]1C(=O)N[C@@H](C)C(=O)N[C@H](C(=O)O)Cc2ccc(OCCN)c(c2)-c2cc1ccc2OCCN (racemic) [Example 647] | 
 |  |  |  |  | 64 (≈ 54.5 µg/mL) | 64 (≈ 54.5 µg/mL) | 0.5 (≈ 0.426 µg/mL) | 0.75 (≈ 0.639 µg/mL) | Cc1nc(-c2ccc(C(C)(C)C)cc2)ncc1C(=O)N[C@@H](CCN)C(=O)N(C)[C@@H]1C(=O)N[C@@H](C)C(=O)N[C@H](C(=O)O)Cc2ccc(OCCN)c(c2)-c2cc1ccc2OCCN (racemic) [Example 640] | 

Reference: patent publication US11208387B2, “Macrocyclic broad spectrum antibiotics” (Genentech, Inc., priority 2019, dated 2021)
